Measurements from paper PMC7876048, “Mutant-selective degradation by BRAF-targeting PROTACs” (Nature Communications, 2021).

What was measured:
[1] = tested on: BRAF (SK-MEL-239 cells, heterozygous BRAF^V600E); experiment: BRAF degradation by immunoblot in SK-MEL-239 cells; format: cell-based
Experimental: (§1) Cells were plated in 6 well dishes (5 × 10^5–8 × 10^5 cells) and allowed to attach overnight. […] The plates were then placed on ice and washed 1x with chilled PBS and lysed in buffer containing 25 mM Tris-HCl [pH 7.4], 0.25% sodium deoxycholate, 150 mM NaCl, 1% Triton X-100, supplemented with protease inhibitors (1x Roche protease inhibitor cocktail) and phosphatase inhibitors (10 mM NaF, 1 mM Na3OV4, and 20 mM β-glycerophosphate). Lysates were then cleared at 21,000 g for 10 min at 4 °C. Protein concentrations of the supernatants were then quantified using a Pierce BCA Protein Assay. 12–40 µg of protein were separated using a gradient (4–20%) Criterion TGX precast gel and transferred unto a nitrocellulose membrane. The membranes were then blocked in 5% non-fat milk in TBST (Tris-buffered Saline with Tween 20) for 1 h before probing with the indicated primary antibody overnight. Membranes were imaged using Bio-Rad Image Lab software using ECL prime detection reagent (GE Healthcare, RPN2232 or ThermoScientific, 34095).
(§2) Western blot data was quantified by using the band feature in Image Lab, and values were averaged and analyzed in GraphPad Prism. DC50 and DMAX values were fitted using a three parameter [inhibitor] versus response and reported directly from the Prism output. Mean ± SD and unpaired t-tests were performed in GraphPad Prism.

[2] = target: T1, BRAF^G469A (SK-MEL-246 cells, Class 2) (Homo sapiens, UniProt P15056, G469A); experiment: BRAF degradation by immunoblot in SK-MEL-246 cells; format: cell-based
T1 construct: endogenous in cells; host or cells: SK-MEL-246
T1 sequence (P15056 whole entry G469A): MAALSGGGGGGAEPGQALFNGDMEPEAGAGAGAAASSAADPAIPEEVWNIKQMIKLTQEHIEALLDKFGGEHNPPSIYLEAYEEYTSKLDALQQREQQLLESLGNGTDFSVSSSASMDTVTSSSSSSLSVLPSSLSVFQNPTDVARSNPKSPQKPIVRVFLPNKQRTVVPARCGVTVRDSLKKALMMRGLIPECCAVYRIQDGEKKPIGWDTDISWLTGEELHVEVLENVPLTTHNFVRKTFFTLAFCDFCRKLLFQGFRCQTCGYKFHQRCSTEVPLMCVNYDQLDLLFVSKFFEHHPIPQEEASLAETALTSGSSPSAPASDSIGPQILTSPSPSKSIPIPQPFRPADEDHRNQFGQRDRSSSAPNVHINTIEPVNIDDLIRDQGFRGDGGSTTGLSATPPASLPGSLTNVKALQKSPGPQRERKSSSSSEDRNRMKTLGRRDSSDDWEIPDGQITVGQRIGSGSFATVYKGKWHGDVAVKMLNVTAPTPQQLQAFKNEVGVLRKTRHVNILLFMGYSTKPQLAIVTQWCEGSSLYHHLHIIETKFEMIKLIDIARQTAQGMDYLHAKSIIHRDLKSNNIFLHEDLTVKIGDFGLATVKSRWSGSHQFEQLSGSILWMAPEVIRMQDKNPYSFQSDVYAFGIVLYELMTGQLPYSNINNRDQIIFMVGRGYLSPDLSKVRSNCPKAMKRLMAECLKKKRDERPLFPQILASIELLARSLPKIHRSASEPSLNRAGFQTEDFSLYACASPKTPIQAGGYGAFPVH
Experimental: as §1, §2

[3] = target: T2, BRAF^V600E (SK-MEL-28 cells, homozygous) (Homo sapiens, UniProt P15056, V600E); experiment: BRAF degradation by immunoblot in SK-MEL-28 cells; format: cell-based
T2 construct: endogenous in cells; host or cells: SK-MEL-28
T2 sequence (P15056 whole entry V600E): as the sequence (P15056 whole entry G469A) above, with A469G, V600E counted along it
Experimental: as §1, §2

BRAF V600E [4] = target: T3, BRAF V600E (Homo sapiens, UniProt P15056, V600E); experiment: Elisa kinase inhibition assay (Carna Biosciences); format: biochemical; parameters: purchased Carna Biosciences; settings: Km ATP, duplicate
T3 sequence (P15056 whole entry V600E): as the sequence (P15056 whole entry G469A) above, with A469G, V600E counted along it
Experimental: (§3) Kinase assays were performed by Carna Biosciences by their protocol in duplicate using Km amounts of ATP calculated for each kinase.

BRAF V600E [5] = target: T3, BRAF V600E; experiment: Radiolabeled kinase assay (Reaction Biology); format: biochemical; parameters: purchased Reaction Biology Corps
Experimental: (§4) Kinase assays were performed by Reaction Biology Corps by their protocol in duplicate using Km amounts of ATP calculated for each kinase.

[6] = target: T4, BRAF-p61^V600E (SK-MEL-239 C4 cells) (Homo sapiens, UniProt P15056, DEL169-380/V600E); experiment: BRAF degradation by immunoblot in SK-MEL-239 C4 cells; format: cell-based; settings: p61 dimer
T4 construct: endogenous in cells; host or cells: SK-MEL-239 C4; HCC-364 vr1
Experimental: as §1, §2

[7] = target: T5, BRAF-p61^V600E (SK-MEL-239 C4 cells) (Homo sapiens, UniProt P15056+P40337, DEL169-380/V600E); experiment: as above; format: cell-based; settings: p61 dimer
T5 construct: endogenous in cells; host or cells: SK-MEL-239 C4; HCC-364 vr1
Experimental: as §1, §2

[8] = target: T6, BRAF^WT (NCI-H23 cells, K-RAS^G12C) (Homo sapiens, UniProt P15056); experiment: BRAF^WT degradation by immunoblot in NCI-H23 cells; format: cell-based
T6 construct: endogenous in cells; host or cells: NCI-H23
T6 sequence (P15056 2-766, stated change not applied): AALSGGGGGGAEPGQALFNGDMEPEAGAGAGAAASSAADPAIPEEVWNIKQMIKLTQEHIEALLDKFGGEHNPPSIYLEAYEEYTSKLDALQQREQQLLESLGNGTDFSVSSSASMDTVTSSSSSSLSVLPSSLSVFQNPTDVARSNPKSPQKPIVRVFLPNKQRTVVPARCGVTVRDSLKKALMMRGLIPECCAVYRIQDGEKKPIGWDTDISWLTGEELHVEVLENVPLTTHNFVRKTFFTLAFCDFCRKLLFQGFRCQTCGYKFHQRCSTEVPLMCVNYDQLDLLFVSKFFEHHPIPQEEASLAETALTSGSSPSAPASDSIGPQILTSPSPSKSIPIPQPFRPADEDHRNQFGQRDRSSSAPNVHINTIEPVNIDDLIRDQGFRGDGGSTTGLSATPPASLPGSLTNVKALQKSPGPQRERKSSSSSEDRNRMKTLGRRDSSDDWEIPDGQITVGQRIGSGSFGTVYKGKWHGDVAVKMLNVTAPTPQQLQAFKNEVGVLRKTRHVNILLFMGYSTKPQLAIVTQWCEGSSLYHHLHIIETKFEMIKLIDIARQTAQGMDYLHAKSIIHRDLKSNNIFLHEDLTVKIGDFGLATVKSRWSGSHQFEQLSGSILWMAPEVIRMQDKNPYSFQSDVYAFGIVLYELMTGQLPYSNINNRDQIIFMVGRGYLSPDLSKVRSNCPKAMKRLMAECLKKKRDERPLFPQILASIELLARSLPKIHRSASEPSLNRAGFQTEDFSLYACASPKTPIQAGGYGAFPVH
Experimental: as §1, §2

BRAF (V600A) = target: T7, BRAF (V600A) (Homo sapiens, UniProt P15056, V600A); experiment: Radiolabeled kinase assay (Reaction Biology); format: biochemical
T7 construct: purchased Reaction Biology Corps
Experimental: as §4

ARAF = target: T8, ARAF (Homo sapiens, UniProt P10398); experiment: Radiolabeled kinase assay (Reaction Biology); format: biochemical
T8 construct: purchased Reaction Biology Corps
Experimental: as §4

BRAF (G469A) = target: T9, BRAF (G469A) (Homo sapiens, UniProt P15056, G469A); experiment: Radiolabeled kinase assay (Reaction Biology); format: biochemical
T9 construct: purchased Reaction Biology Corps
Experimental: as §4

BRAF (BRAF^WT) = target: T10, BRAF (BRAF^WT) (Homo sapiens, UniProt P15056); experiment: Radiolabeled kinase assay (Reaction Biology); format: biochemical
T10 construct: purchased Reaction Biology Corps
Experimental: as §4

BRAF (G464V) = target: T11, BRAF (G464V) (Homo sapiens, UniProt P15056, G464V); experiment: Radiolabeled kinase assay (Reaction Biology); format: biochemical
T11 construct: purchased Reaction Biology Corps
Experimental: as §4

BRAF (V600K) = target: T12, BRAF (V600K) (Homo sapiens, UniProt P15056, V600K); experiment: Radiolabeled kinase assay (Reaction Biology); format: biochemical
T12 construct: purchased Reaction Biology Corps
Experimental: as §4

BRAF (L597V) = target: T13, BRAF (L597V) (Homo sapiens, UniProt P15056, L597V); experiment: Radiolabeled kinase assay (Reaction Biology); format: biochemical
T13 construct: purchased Reaction Biology Corps
Experimental: as §4

CRAF = CRAF (Homo sapiens, UniProt P04049); experiment: Radiolabeled kinase assay (Reaction Biology); format: biochemical
Experimental: as §4

BRAF (V600D) = target: T14, BRAF (V600D) (Homo sapiens, UniProt P15056, V600D); experiment: Radiolabeled kinase assay (Reaction Biology); format: biochemical
T14 construct: purchased Reaction Biology Corps
Experimental: as §4

BRAF (K601E) = target: T15, BRAF (K601E) (Homo sapiens, UniProt P15056, K601E); experiment: Radiolabeled kinase assay (Reaction Biology); format: biochemical
T15 construct: purchased Reaction Biology Corps
Experimental: as §4

[9] = target: T16, BRAF^WT (SK-BR-3 cells, HER2 amplification) (Homo sapiens, UniProt P15056); experiment: BRAF^WT degradation by immunoblot in SK-BR-3 cells; format: cell-based
T16 construct: endogenous in cells; host or cells: SK-BR-3
T16 sequence (P15056 whole entry): as the sequence (P15056 whole entry G469A) above, with A469G counted along it
Experimental: as §1, §2

[10] = tested on: H1666 cells (Class 3, BRAF^G466V); experiment: Cell proliferation (MTS) assay; format: cell-based; settings: 5 days
[11] = tested on: SK-MEL-239 C4 cells (BRAF^WT/BRAF-p61^V600E); experiment: Cell proliferation (MTS) assay; format: cell-based; settings: 5 days
[12] = target: T17, BRAF^WT (A-431 cells, HER1 amplification) (Homo sapiens, UniProt P15056); experiment: BRAF^WT degradation by immunoblot in A-431 cells; format: cell-based
T17 construct: endogenous in cells; host or cells: A-431
T17 sequence (P15056 whole entry): as the sequence (P15056 whole entry G469A) above, with A469G counted along it
Experimental: as §1, §2

BRAF WT = target: T18, BRAF WT (Homo sapiens, UniProt P15056); experiment: Elisa kinase inhibition assay (Carna Biosciences); format: biochemical; settings: Km ATP, duplicate
T18 construct: purchased Carna Biosciences
Experimental: as §3

[13] = 1 μM cobimetinib pre-treatment 1 hour, then 1 μM SJF-0628

Compound: CCCS(=O)(=O)Nc1ccc(F)c(C(=O)c2c[nH]c3ncc(-c4ccc(N5CCN(CC(=O)NC(C(=O)N6CC(O)CC6C(=O)NCc6ccc(-c7scnc7C)cc6)C(C)(C)C)CC5)cc4)cc23)c1F (centres unmarked) [SJF-0628]
- BRAF degradation [1]: minimal BRAF degradation
- DC50 [2]: 15 nM
- Dmax [2]: > 95%
- time for which BRAF^V600E degradation and p-ERK inhibition was sustained ([3]; 100 nM): up to 72 h
- recovery of BRAF levels and MAPK phosphorylation after wash-out ([3]; 100 nM 24 h treatment, wash-out, 24 h after): 30%
- time to near complete / maximal BRAF^V600E degradation ([3]; 100 nM time course): ≤ 4 h
- DC50 ([3]; 20-24 h treatment, read-out: DC50 (half-maximal degradation)): 6.8 nM
- Dmax ([3]; 20-24 h treatment, read-out: DMAX (percent of maximal degradation)): > 95%
- IC50 (BRAF V600E [4]): 24.4 nM
- IC50 (BRAF V600E [5]): 1.87 nM
- DC50 [6]: 72 nM
- Dmax [7]: > 80%
- BRAF^WT degradation ([8]; MRTX849 pre-treatment 2 h): 20%
- BRAF^WT degradation ([8]; PROTAC alone): 50%
- IC50 (BRAF (V600A)): 1.06 nM
- IC50 (ARAF): 0.27 nM
- IC50 (BRAF (G469A)): 0.98 nM
- IC50 (BRAF (BRAF^WT)): 5.8 nM
- IC50 (BRAF (G464V)): 9.18 nM
- IC50 (BRAF (V600K)): 0.49 nM
- IC50 (BRAF (L597V)): 16 nM
- IC50 (CRAF): 37.6 nM
- IC50 (BRAF (V600D)): 2.68 nM
- IC50 (BRAF (K601E)): 7.84 nM
- time at which complete degradation of BRAF^WT observed [9, 13]: 12 h
- time to PROTAC-induced degradation of BRAF^WT [9, 13]: ≤ 4 h
- degradation of BRAF^WT ([9]; PROTAC concentrations greater than 1 µM): ~ 50%
- SJF-0628-dependent BRAF^WT degradation ([9]; lapatinib 2-hour pre-treatment): 10%
- SJF-0628-dependent BRAF^WT degradation ([9]; without lapatinib pre-treatment): 48%
- cell growth inhibition [10]: 65%
- EC50 ([11]; 120 h, read-out: EC50, cell growth): 218 nM
- decrease in cell growth [11]: ~ 80%
- degradation of BRAF^WT ([12]; A-431 cells, PROTAC concentrations greater than 1 µM): ~ 30%
- PROTAC-dependent degradation of BRAF^WT ([12]; GDC-0623 pre-treatment (500 nM, 3 h), SJF-0628 20 h, A431 (also OVCAR-8, SK-BR-3)): minimal PROTAC-dependent degradation
- IC50 (BRAF WT): 39.2 nM
